The target of data set [1] is T1, TK1 (Homo sapiens, UniProt P04183).
T1 sequence (P04183 1-234): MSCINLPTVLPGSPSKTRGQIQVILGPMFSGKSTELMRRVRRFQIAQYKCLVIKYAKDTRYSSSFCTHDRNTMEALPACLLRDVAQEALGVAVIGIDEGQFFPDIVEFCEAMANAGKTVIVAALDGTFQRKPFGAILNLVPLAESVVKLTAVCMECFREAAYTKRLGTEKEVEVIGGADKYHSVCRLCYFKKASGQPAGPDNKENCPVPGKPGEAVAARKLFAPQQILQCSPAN
Nature of the data set: Phosphate transfer assay. The format is biochemical. The following applies: 100 μM nucleoside analogue and 100 μM ATP.

Data set [2] addresses T1, TK1. Nature of the data set: Enzyme kinetic studies. The following applies: 1.95–500 μM nucleoside analogue and 100 μM ATP. The format is biochemical.
The nature of data set [3]: Stability during storage in aqueous solutions. The data set is classed as physicochemical.
Data set [4] addresses T1, TK1. The experiment in a line: Competitive TK1 inhibition studies. The following applies: 0.5 μM dThd, 5 mM ATP, 0–250.00 μM nucleoside analogue.
Data set [5] relates to rats bearing intracerebral RG2 gliomas. Nature of the data set: In vivo biodistribution study, boron determination by ICP-OES. Also on record: species or system rat.
In the next data set the test system is RG2 glioma cells. The experiment in a line: In vitro metabolomic HRMS study. The format is cell-based, rat.
For data set [6], the system named is TK1(+)- and TK1(−) L929 cells. The following applies: cited from earlier work.

Where “and” joins values, the source holds several entries; their conditions need not be identical. Equal values may be shown once.

In the case of “3-({2-[2-(closo-1,7-Carboranyl)ethyl]amino}-2-oxoethyl)thymidine [Compound 28]”, the “rPR (phosphorylation rate relative to that of dThd)” value at TK1 [1] was found to be 19.2 ± 4.5%.

In the case of “3-({2-[2-(closo-1,7-Carboranyl)ethyl]amino}ethyl)thymidine [Compound 16]”, the “rPR (phosphorylation rate relative to that of dThd)” value on TK1 [1] is reported as 35.2 ± 5.3%.

As for “3-({2-[3-(closo-1,7-Carboranyl)propyl]amino}ethyl)thymidine [Compound 17]”, at TK1 [1], the “rPR (phosphorylation rate relative to that of dThd)” value came to 24.5 ± 7.8%.

As for “3-({2-[3-(closo-1,7-carboranyl)propyl]amino}-2-oxoethyl)thymidine [Compound 29]”, the “rPR (phosphorylation rate relative to that of dThd)” value on TK1 [1] is on record as 14.5 ± 4.8%.

Regarding “3-({2-[4-(closo-1,7-Carboranyl)butyl]amino}ethyl)thymidine [Compound 18]”, the “rPR (phosphorylation rate relative to that of dThd)” value on TK1 [1] is recorded as 44.4 ± 8.7%.

In the case of “3-({2-[4-(closo-1,7-carboranyl)butyl]amino}-2-oxoethyl)thymidine [Compound 30]”, the “rPR (phosphorylation rate relative to that of dThd)” value on TK1 [1] was 12.3 ± 8.7%.

Regarding “3-({3-[3-(closo-1,7-Carboranyl)propyl]amino}propyl)thymidine [Compound 19]”, the “rPR (phosphorylation rate relative to that of dThd)” value on TK1 [1] is given as 18.8 ± 4.8%.

Regarding “3-({3-[4-(closo-1,7-Carboranyl)butyl]amino}propyl)thymidine [Compound 20]”, the “rPR (phosphorylation rate relative to that of dThd)” value on TK1 [1] stood at 19.5 ± 5.3%.

Broadly, the Km is the substrate concentration at which the rate is half of its maximum. As usually defined, the kcat is the maximal rate divided by the concentration of active sites. By IC50 is commonly meant the concentration at which inhibition is half-maximal. Lower therefore signals higher potency. Regarding “3-({4-[3-(closo-1,7-Carboranyl)propyl]amino}butyl)thymidine [Compound 21]”, the “rPR (phosphorylation rate relative to that of dThd)” value at TK1 [1] is 45% and 45.2 ± 3.8%. Further, on TK1 [2], the Km came out at 80.1 ± 37.6 µM, the kcat worked out at 5.9 s⁻¹ and the “rkcat/Km (kcat/Km relative to that of 1)” value is given as 2.0%. For the same substance, in data set [3], the Stability during storage entry was “stable”. Further, the IC50 at TK1 [4] was > 250 µM.

With “3-({4-[4-(closo-1,7-Carboranyl)butyl]amino}butyl)thymidine [Compound 22]”, the “rPR (phosphorylation rate relative to that of dThd)” value on TK1 [1] was 38% and 38.0 ± 6.5%. Moreover, on TK1 [2], the Km stood at 39.8 ± 10.4 µM, the kcat was found to be 5.4 s⁻¹ and the “rkcat/Km (kcat/Km relative to that of 1)” value turned out to be 3.7%. In data set [3], the Stability during storage entry was “stable”. In addition, the IC50 on TK1 [4] is > 250 µM.

For “3-[5-{2-(2,3-dihydroxyprop-1-yl)-o-carboran-1-yl}pentan-1-yl]thymidine [Compound 2]”, the “rPR (phosphorylation rate relative to that of dThd)” value on TK1 [1] is 40.0% and 40.0 ± 11.2%. Also, on TK1 [2], the Michaelis-Menten constant (Km) was determined as 24.3 ± 2.1 µM, the kcat amounted to 5.1 s⁻¹ and the “rkcat/Km (kcat/Km relative to that of 1)” value is 5.8%. For the same substance, in data set [5] (100 μg boron i.c. by ALZET pump over 24 h, RG2 glioma, Fischer rats), the “Boron concentration, Tumor” value was 8.9 µg/g and 8.8 ± 2.9 µg/g. Also, the “Ratio T/Bl (tumor/blood ratio)” value in data set [5] (tumor to blood boron ratio, i.c. over 24 h) came to 9.3. Besides, the “Ratio T/B” value in data set [5] (tumor to brain boron ratio, i.c. over 24 h) turned out to be 4.3. Moreover, the “Di- and triphosphate metabolites” value in the data set on RG2 glioma cells (RG2 cells, HRMS positive and negative ion mode) was “could not be detected”. In addition, the “5′-Monophosphate metabolite formation” value in the data set with RG2 glioma cells (TK1(+) RG2 cells, 17.5 μM, 2 hours, HRMS) is “monophosphorylated”. In addition, the Stability during storage entry in data set [3] is on record as “stable”. Also, the Di- and triphosphorylation result in data set [6] (TK1(+) L929 cells) is on record as “did not seem to occur”. The “Intracellular monophosphate metabolite formation” value in data set [6] (TK1(+) vs TK1(−) L929 cells, tritiated compound) is “production of tritiated 2-MP in TK1(+) L929 cells but not in their TK1(−) L929 counterparts”. Further, at TK1 [4], the IC50 came out at 37.5 ± 6.3 µM.

Regarding “3-{[3-(closo-1,7-Carboranyl)propyl]amino}thymidine [Compound 9]”, the “rPR (phosphorylation rate relative to that of dThd)” value at TK1 [1] is given as ~ 30%.

Values taken from publication PMC4501388 (European journal of medicinal chemistry, 2015).
